Biological target: unphosphorylated-BTK kinase domain (UP-BTK), GST-tagged human BTK (389-659aa) (Homo sapiens (Human), UniProt Q06187)
Assay: BTK kinase Lanthascreen binding assay
Details: pIC50 = negative log of the IC50 in molar; 60 minutes incubation, 50 nM Tracer 236
How it was run: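 Measures how well compounds compete with a fluorescence-labelled tracer for binding to BTK in its unphosphorylated state. IC50 values were fitted and expressed as pIC50 (negative logarithm of the molar IC50).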

unphosphorylated-BTK kinase domain (UP-BTK), GST-tagged human BTK (389-659aa), sequence (Q06187 389-659): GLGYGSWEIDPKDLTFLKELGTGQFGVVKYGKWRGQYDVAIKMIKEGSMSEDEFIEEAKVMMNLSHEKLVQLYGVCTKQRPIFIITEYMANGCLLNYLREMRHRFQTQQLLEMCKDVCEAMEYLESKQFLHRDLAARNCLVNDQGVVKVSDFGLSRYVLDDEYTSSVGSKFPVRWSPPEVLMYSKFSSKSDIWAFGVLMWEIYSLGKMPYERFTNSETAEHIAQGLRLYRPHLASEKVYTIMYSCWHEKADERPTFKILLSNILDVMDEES

| BTK_I_binding pIC50 | SMILES |
| --- | --- |
| 6.5 | Cc1cc(Oc2ccccc2)ccc1N1C(=O)Nc2c(C(=O)N[C@@H]3CCCN(C(=O)/C=C/C(C)C)C3)sc3nccc1c23 [Example 247, (R,E)-5-(2-Methyl-4-phenoxyphenyl)-N-(1-(4-methylpent-2-enoyl)piperidin-3-yl)-4-oxo-4,5-dihydro-3H-1-thia-3,5,8-triazaacenaphthylene-2-carboxamide] |
| 6.5 | Cc1cc(Oc2ccccc2)ccc1N1C(=O)Nc2c(C(=O)NC3CN(C)C3)sc3nccc1c23 [Example 248, 5-(2-Methyl-4-phenoxyphenyl)-N-(1-methylazetidin-3-yl)-4-oxo-4,5-dihydro-3H-1-thia-3,5,8-triazaacenaphthylene-2-carboxamide] |
| 6.4 | Cc1cc(OC2CCCCC2)ccc1N1C(=O)Nc2c(C(=O)N[C@@H]3CCCN(C)C3)sc3nccc1c23 [Example 250, (R)-5-(4-(Cyclohexyloxy)-2-methylphenyl)-N-(1-methylpiperidin-3-yl)-4-oxo-4,5-dihydro-3H-1-thia-3,5,8-triazaacenaphthylene-2-carboxamide] |
| 6.4 | CCN1CC(NC(=O)c2sc3nccc4c3c2NC(=O)N4c2ccc(Oc3ccccc3)cc2C)C1 [Example 251, N-(1-Ethylazetidin-3-yl)-5-(2-methyl-4-phenoxyphenyl)-4-oxo-4,5-dihydro-3H-1-thia-3,5,8-triazaacenaphthylene-2-carboxamide] |
| 6.4 | Cc1cc(Oc2ccccc2)ccc1N1C(=O)Nc2c(C(=O)NC3CNC3)sc3nccc1c23 [Example 252, N-(azetidin-3-yl)-5-(2-methyl-4-phenoxyphenyl)-4-oxo-4,5-dihydro-3H-1-thia-3,5,8-triazaacenaphthylene-2-carboxamide] |
| 6.6 | C=CC(=O)N1CCC[C@@H](NC(=O)c2sc3nccc4c3c2NC(=O)N4c2ccc(OC)cc2)C1 [Example 254] |
| 6.6 | C=CC(=O)N1CCC[C@@H](NC(=O)c2sc3nccc4c3c2NC(=O)N4c2ccc(F)cc2)C1 [Example 255, (R)—N-(1-Acryloylpiperidin-3-yl)-5-(4-fluorophenyl)-4-oxo-4,5-dihydro-3H-1-thia-3,5,8-triazaacenaphthylene-2-carboxamide] |
| 6.6 | C=CC(=O)N1CCC[C@@H](NC(=O)c2sc3nccc4c3c2NC(=O)N4c2ccc(Cl)cc2)C1 [Example 256, (R)—N-(1-Acryloylpiperidin-3-yl)-5-(4-chlorophenyl)-4-oxo-4,5-dihydro-3H-1-thia-3,5,8-triazaacenaphthylene-2-carboxamide] |
| 6.4 | C=CC(=O)N1CCC[C@@H](NC(=O)c2sc3nccc4c3c2NC(=O)N4c2ccccc2)C1 [Example 257, (R)—N-(1-Acryloylpiperidin-3-yl)-4-oxo-5-phenyl-4,5-dihydro-3H-1-thia-3,5,8-triazaacenaphthylene-2-carboxamide] |
| 6.5 | Cc1cc(Oc2ccccc2)ccc1N1C(=O)Nc2c(C(=O)NC3CCNC(C)C3)sc3nccc1c23 (stereo not drawn) [Example 258, 5-(2-methyl-4-phenoxyphenyl)-N-(2-methylpiperidin-4-yl)-4-oxo-4,5-dihydro-3H-1-thia-3,5,8-triazaacenaphthylene-2-carboxamide] |
| 6.5 | CO[C@@H]1C[C@@H](NC(=O)c2sc3nccc4c3c2NC(=O)N4c2ccc(Oc3ccccc3)cc2)CN(C)C1 [Example 259, N-((3R,5R)-5-Methoxy-1-methylpiperidin-3-yl)-4-oxo-5-(4-phenoxyphenyl)-4,5-dihydro-3H-1-thia-3,5,8-triazaacenaphthylene-2-carboxamide] |
| 6.5 | CC(C)=C(Cl)C(=O)N1CCC[C@@H](NC(=O)c2sc3nccc4c3c2NC(=O)N4c2ccc(Oc3ccccc3)cc2C)C1 [Example 260, (R)—N-(1-(2-chloro-3-methylbut-2-enoyl)piperidin-3-yl)-5-(2-methyl-4-phenoxyphenyl)-4-oxo-4,5-dihydro-3H-1-thia-3,5,8-triazaacenaphthylene-2-carboxamide] |
| 6.5 | C/C=C(\F)C(=O)N1CCC[C@@H](NC(=O)c2sc3nccc4c3c2NC(=O)N4c2ccc(Oc3ccccc3)cc2C)C1 [Example 261, (R,Z)—N-(1-(2-Fluorobut-2-enol)piperidin-3-yl)-5-(2-methyl-4-phenoxyphenyl)-4-oxo-4,5-dihydro-3H-1-thia-3,5,8-triazaacenaphthylene-2-carboxamide] |
| 6.4 | CC(C)=C(F)C(=O)N1CCC[C@@H](NC(=O)c2sc3nccc4c3c2NC(=O)N4c2ccc(Oc3ccccc3)cc2C)C1 [Example 263, (R)—N-(1-(2-Fluoro-3-methylbut-2-enoyl)piperidin-3-yl)-5-(2-methyl-4-phenoxyphenyl)-4-oxo-4,5-dihydro-3H-1-thia-3,5,8-triazaacenaphthylene-2-carboxamide] |
| 6.4 | C=CC(=O)N1CC[C@@H](NC(=O)c2sc3nccc4c3c2NC(=O)N4c2ccc(S(F)(F)(F)(F)F)cc2C)C1 [Example 264, (R)—N-(1-Acryloylpyrrolidin-3-yl)-5-(2-methyl-4-(pentafluorothio)phenyl)-4-oxo-4,5-dihydro-3H-1-thia-3,5,8-triazaacenaphthylene-2-carboxamide] |
| 6.4 | Cc1cc(Oc2ccccc2)ccc1N1C(=O)Nc2c(C(=O)NC[C@@H]3CCCN3C)sc3nccc1c23 [Example 265, (S)-5-(2-Methyl-4-phenoxyphenyl)-N-((1-methylpyrrolidin-2-yl)methyl)-4-oxo-4,5-dihydro-3H-1-thia-3,5,8-triazaacenaphthylene-2-carboxamide] |
| 6.3 | Cc1cc(Oc2ccccc2)ccc1N1C(=O)Nc2c(C(=O)N[C@@H]3C[C@H](O)CN(C)C3)sc3nccc1c23 [Example 266, N-((3R,5S)-5-Hydroxy-1-methylpiperidin-3-yl)-5-(2-methyl-4-phenoxyphenyl)-4-oxo-4,5-dihydro-3H-1-thia-3,5,8-triazaacenaphthylene-2-carboxamide] |
| 6.3 | CO[C@@H]1CNC[C@H](NC(=O)c2sc3nccc4c3c2NC(=O)N4c2ccc(Oc3ccccc3)cc2C)C1 [Example 268, N-((3R,5S)-5-Methoxypiperidin-3-yl)-5-(2-methyl-4-phenoxyphenyl)-4-oxo-4,5-dihydro-3H-1-thia-3,5,8-triazaacenaphthylene-2-carboxamide] |
| 6.3 | Cc1cc(Oc2ccccc2)ccc1N1C(=O)Nc2c(C(=O)NC[C@@H]3CCCN3)sc3nccc1c23 [Example 269, (S)-5-(2-Methyl-4-phenoxyphenyl)-4-oxo-N-(pyrrolidin-2-ylmethyl)-4,5-dihydro-3H-1-thia-3,5,8-triazaacenaphthylene-2-carboxamide] |
| 6.3 | C=CC(=O)N1CC[C@@H](NC(=O)c2sc3nccc4c3c2NC(=O)N4c2ccc(OC3CCOCC3)cc2C)C1 [Example 270, (R)—N-(1-Acryloylpyrrolidin-3-yl)-5-(2-methyl-4-((tetrahydro-2H-pyran-4-yl)oxy)phenyl)-4-oxo-4,5-dihydro-3H-1-thia-3,5,8-triazaacenaphthylene-2-carboxamide] |
| 6.3 | C=CC(=O)N1CCC[C@@H](NC(=O)c2sc3nccc4c3c2NC(=O)N4c2ccc(C)cc2)C1 [Example 271, (R)—N-(1-Acryloylpiperidin-3-yl)-4-oxo-5-(p-tolyl)-4,5-dihydro-3H-1-thia-3,5,8-triazaacenaphthylene-2-carboxamide] |

Reference: patent publication US10800792B2, “Inhibitors of Bruton's tyrosine kinase and method of their use” (JANSSEN PHARMACEUTICA NV, priority 2015, dated 2020)
